The results in this text go back to paper PMC8296985, “A Covalent Calmodulin Inhibitor as a Tool to Study Cellular Mechanisms of K-Ras-Driven Stemness” (Frontiers in Cell and Developmental Biology, 2021).

The structures appear in SMILES notation. A value given as a limit tells only on which side of the number the result lay.

In the first assay the test system is NCI-H358, MIA PaCa-2, MDA-MB-231 and A375 3D spheroids. Description: 3D spheroid growth benchmarking, DSS3, alamarBlue. The assay is classed as cell-based. Particulars: spheroids grown 72 h then treated 72 h. Here is the method:
(§1) 3D spheroid formation assays were performed in 96-well low-attachment, suspension culture plates (cat. no. 655185, Cellstar, Greiner Bio-One) under serum-free condition. About 1,000 (MDA-MB-231, NCI-H358, and MIA PaCa-2) or 2,500 (Hs 578T) cells per well were seeded in 50 μl of either an RPMI medium (cat. no. 52400-025, Gibco, Thermo Fisher Scientific) (MDA-MB-231, A375, and NCI-H358) or DMEM (cat. no. 41965-039, Gibco, Thermo Fisher Scientific) (Hs 578T and MIA PaCa-2), containing 0.5% MethoCult (cat. no. SF H4636, Stemcell technologies), 1x B27 (cat. no. 17504044, Gibco, Thermo Fisher Scientific), 25 ng/ml EGF (cat. no. E9644, Sigma-Aldrich), and 25 ng/ml FGF (cat. no. RP-8628, Thermo Fisher Scientific). Cells were cultured for 3 days and then treated with compounds or vehicle control (DMSO 0.1% v/v in growth medium) for another 3 days. The cells were supplemented with a fresh growth medium on the third day together with the drug treatment. For knockdown experiments, cells were seeded in 12-well plates and treated with either 50 nM scrambled siRNA (cat. no. 1022076, QIAGEN) or indicated concentrations of siRNAs. Next day, cells were collected by trypsinization and re-plated into 96-well plates for 3D spheroid suspension culture.
(§2) Spheroid formation efficiency was analyzed by an alamarBlue assay reagent (cat. no. DAL1100, Thermo Fisher Scientific). A 10% final volume of the alamarBlue reagent was added to each well of the plate and incubated for 4 h at 37°C. Then the fluorescence intensity was measured using the FLUOstar OPTIMA plate reader (BMG Labtech, Germany) with an excitation wavelength of 560 ± 5 nm and an emission wavelength of 590 ± 5 nm.
(§3) To quantitatively profile the drug sensitivity with a more robust parameter than the IC50 or EC50 values, the drug sensitivity score (DSS) analysis was employed. DSS values are essentially normalized area under the curve (AUC) measures of dose-response inhibition data ([Yadav et al., 2014]). Drug response data files (in Excel) ready for online analysis were prepared according to the example file obtained from the DSS pipeline website, called Breeze^1 ([Potdar et al., 2020]). Either raw fluorescence intensity measurements or normalized % inhibition data (for BRET assay analysis) were uploaded.
(§4) DSS3 was employed to emphasize drugs that obtain their response area over a relatively wide dose window, as compared to drugs that show increased response only at the higher end of the concentration range. After logistic fitting of the dose-response inhibition data, the area under the curve (AUC) was determined as the exact solution. A 10% minimal activity threshold (t) was set. The maximum (Cmax) and minimum (Cmin) concentrations were used for screening of the inhibitors, with Cmax = x2 and x1 concentration with minimal activity t.
(In general: Resazurin is reduced to fluorescent resorufin, in cell work by metabolically active cells.)
On to `CCCS(=O)(=O)Nc1ccc(F)c(C(=O)c2c[nH]c3ncc(-c4ccc(Cl)cc4)cc23)c1F` [vemurafenib], for which the “effect on 3D spheroid growth” value is “selectively and potently abolished the growth”.

A further assay deals with calmodulin (CaM) (Bos taurus, UniProt P62157). Kind of assay: Fluorescence polarization assay, displacement of F-PMCA peptide from CaM.
Settings: not given
(Polarisation of emitted light reports the rotation of a fluorescent probe.)
With `Cc1c(N2CCC2)c2c(=O)c(C(F)(F)F)cc3ccc(C(C)C)cc1c32` [Compound 12], binding was put at a Kd of 6.1 µM. That is a single-digit micromolar value.

As for `CC(C)c1ccc2cc(C(F)(F)F)c(=O)c3c(N)c(C=O)c(c1)c23` [Compound 7], binding was characterised by a dissociation constant (Kd) of 45 µM.

As to `CC(C)c1ccc2cc(C(F)(F)F)c(=O)c3c(NCCO)c(C=O)c(c1)c23` [Compound 6], the Kd (commonly the equilibrium constant for the complex coming apart) came to 31 µM.

In the case of `Cc1c(N)c2c(=O)c(C(F)(F)F)cc3ccc(C(C)C)cc1c32` [Compound 14], the affinity, expressed as Kd, was 21.4 µM.

Regarding `Cc1c(N2CCOCC2)c2c(=O)c(C(F)(F)F)cc3ccc(C(C)C)cc1c32` [Compound 9], the affinity, expressed as Kd, was 1.44 µM and the Ki (commonly a measure of affinity in units of concentration, obtained from inhibition or displacement) was found to be 229 µM.

Still in this assay, the particulars now being: read-out: k2/Ki second-order rate constant.
Turning to `Cc1c(N2CCOCC2)c2c(=O)c(C(F)(F)F)cc3ccc(C(C)C)cc1c32` [Compound 9], the kinact/KI is 1.67 M⁻¹ s⁻¹.

The next assay concerns Hs 578T. Kind of assay: 3D spheroid (tumorosphere) formation assay, low attachment, serum-free, alamarBlue. The assay is classed as cell-based. Particulars: Homo sapiens, 72 h; Hs 578T (H-RasG12D) 3D tumorosphere, 3 days treatment; read-out: IC50. The protocol:
as §1, §2, §3, §4
Turning to `Cc1c(N2CCC2)c2c(=O)c(C(F)(F)F)cc3ccc(C(C)C)cc1c32` [Compound 12], the IC50 amounted to 8.5 µM.

Regarding `CC(C)c1ccc2cc(C(F)(F)F)c(=O)c3c(N)c(C=O)c(c1)c23` [Compound 7], the IC50 was > 40 µM.

`CC(C)c1ccc2cc(C(F)(F)F)c(=O)c3c(NCCO)c(C=O)c(c1)c23` [Compound 6]: the IC50 is > 40 µM.

As for `Cc1c(N)c2c(=O)c(C(F)(F)F)cc3ccc(C(C)C)cc1c32` [Compound 14], the IC50 was > 40 µM.

Regarding `Cc1c(N2CCOCC2)c2c(=O)c(C(F)(F)F)cc3ccc(C(C)C)cc1c32` [Compound 9], the IC50 amounted to 17.4 µM.

Staying with this assay, now noted: Homo sapiens; Hs 578T 3D tumorosphere; log scale; read-out: logIC50 ± SD (converted).
In the case of `Cc1c(N2CCC2)c2c(=O)c(C(F)(F)F)cc3ccc(C(C)C)cc1c32` [Compound 12], the IC50 was 7.94 µM.

Turning to `Cc1c(N2CCOCC2)c2c(=O)c(C(F)(F)F)cc3ccc(C(C)C)cc1c32` [Compound 9], the IC50 is 17.4 µM.

Still in this assay, the particulars now being: Hs 578T 3D tumorosphere; log scale.
Regarding `CC(C)c1ccc2cc(C(F)(F)F)c(=O)c3c(N)c(C=O)c(c1)c23` [Compound 7], the “logIC50 ± SD” value is “Inconclusive”.

Take `CC(C)c1ccc2cc(C(F)(F)F)c(=O)c3c(NCCO)c(C=O)c(c1)c23` [Compound 6]: the “logIC50 ± SD” value is given as “Inconclusive”.

Consider `Cc1c(N)c2c(=O)c(C(F)(F)F)cc3ccc(C(C)C)cc1c32` [Compound 14], for which the “logIC50 ± SD” value was “Inconclusive”.

In a further assay the test system is MDA-MB-231. The assay is described as above. It counts as cell-based. To be noted: Homo sapiens, 72 h; MDA-MB-231 (K-RasG13D) 3D tumorosphere, 3 days treatment; read-out: IC50. Here is the method:
as §1, §2, §3, §4
`Cc1c(N2CCC2)c2c(=O)c(C(F)(F)F)cc3ccc(C(C)C)cc1c32` [Compound 12]: the IC50 is > 40 µM.

Consider `CC(C)c1ccc2cc(C(F)(F)F)c(=O)c3c(N)c(C=O)c(c1)c23` [Compound 7], for which the IC50 was > 40 µM.

As for `CC(C)c1ccc2cc(C(F)(F)F)c(=O)c3c(NCCO)c(C=O)c(c1)c23` [Compound 6], the IC50 is > 40 µM.

On to `Cc1c(N)c2c(=O)c(C(F)(F)F)cc3ccc(C(C)C)cc1c32` [Compound 14], for which the IC50 is > 40 µM.

`Cc1c(N2CCOCC2)c2c(=O)c(C(F)(F)F)cc3ccc(C(C)C)cc1c32` [Compound 9]: the IC50 is 19.6 µM.

The same assay, now with this note: Homo sapiens; MDA-MB-231 3D tumorosphere; log scale; read-out: logIC50 ± SD (converted).
In the case of `Cc1c(N2CCOCC2)c2c(=O)c(C(F)(F)F)cc3ccc(C(C)C)cc1c32` [Compound 9], the IC50 was 19.5 µM.

Staying with this assay, now noted: MDA-MB-231 3D tumorosphere; log scale.
`Cc1c(N2CCC2)c2c(=O)c(C(F)(F)F)cc3ccc(C(C)C)cc1c32` [Compound 12]: the “logIC50 ± SD” value is listed as “Inconclusive”.

With `CC(C)c1ccc2cc(C(F)(F)F)c(=O)c3c(N)c(C=O)c(c1)c23` [Compound 7], the “logIC50 ± SD” value was “Inconclusive”.

For the molecule `CC(C)c1ccc2cc(C(F)(F)F)c(=O)c3c(NCCO)c(C=O)c(c1)c23` [Compound 6], the “logIC50 ± SD” value was “Inconclusive”.

`Cc1c(N)c2c(=O)c(C(F)(F)F)cc3ccc(C(C)C)cc1c32` [Compound 14]: the “logIC50 ± SD” value is reported as “Inconclusive”.

Staying with this assay, now noted: MDA-MB-231 vs Hs 578T 3D spheroid formation, 0.6–40 μM; numbers above bars Fig. 1A,B.
For `Cc1c(N2CCC2)c2c(=O)c(C(F)(F)F)cc3ccc(C(C)C)cc1c32` [Compound 12], the “KRAS/HRAS mutant cell line DSS3 ratio” value is listed as 0.01.

Regarding `CC(C)c1ccc2cc(C(F)(F)F)c(=O)c3c(N)c(C=O)c(c1)c23` [Compound 7], the “KRAS/HRAS mutant cell line DSS3 ratio” value is reported as 2.2.

`CC(C)c1ccc2cc(C(F)(F)F)c(=O)c3c(NCCO)c(C=O)c(c1)c23` [Compound 6]: the “KRAS/HRAS mutant cell line DSS3 ratio” value was found to be 115.5.

With `Cc1c(N)c2c(=O)c(C(F)(F)F)cc3ccc(C(C)C)cc1c32` [Compound 14], the “KRAS/HRAS mutant cell line DSS3 ratio” value was 4.7.

For the molecule `Cc1c(N2CCOCC2)c2c(=O)c(C(F)(F)F)cc3ccc(C(C)C)cc1c32` [Compound 9], the “KRAS/HRAS mutant cell line DSS3 ratio” value is 1.3.
